# In EP2069533B1, “GENE […] FOR IDENTIFICATION, MONITORING AND TREATMENT OF MULTIPLE SCLEROSIS” (Life Technologies Corporation, priority 2006, dated 2008):
# Test system: IL1B
# Experiment: Whole blood response to E. coli filtrate with or without polymyxin B
# Assay type: cell-based, human
# Conditions: polymyxin B added to E. coli filtrate
# Description: Figs. 27 through 41 illustrate the use of gene expression panels in early identification and monitoring of infectious disease. These figures plot the response, in expression products of the genes indicated, in whole blood, to the administration of various infectious agents or products associated with infectious agents. In each figure, the gene expression levels are "calibrated", as that term is defined herein, in relation to baseline expression levels determined with respect to the whole blood prior to administration of the relevant infectious agent. In this respect the figures are similar in nature to various figures of our below-referenced patent application WO 01/25473 (for example, Fig. 15 therein). The concentration change is shown ratiometrically, and the baseline level of 1 for a particular gene locus corresponds to an expression level for such locus that is the same, monitored at the relevant time after addition of the infectious agent or other stimulus, as the expression level before addition of the stimulus. Ratiometric changes in concentration are plotted on a logarithmic scale. Bars below the unity line represent decreases in concentration and bars above the unity line represent increases in concentration, the magnitude of each bar indicating the magnitude of the ratio of the change. […]
# The responses were monitored at 2, 6, and 24 hours after administration. […]
substance,measurement,value
polymyxin B,response of IL1B to E. coli filtrate,did not affect the response
